Source: PubChem BioAssay AID1996
Converted amounts (≈) assume the structure as drawn.

Conditions: buffer; pH 7.4; 200.0 µM

Row | SMILES | solubility kinetic [µg/mL]
1 | CC(C)(C)Cc1nnc(NC(=O)c2ccco2)s1 | > 39.8
2 | COc1ccc(C(C)=O)cc1CN1C(=O)NC2(CCCC2)C1=O | 44.9 (≈ 142 µM)
3 | Cc1cc(NCCOCCO)n2c(nc3ccccc32)c1C#N | > 46.6
4 | O=[N+]([O-])c1ccc(CN2CCN(c3ccccc3)CC2)o1 | 14.5 (≈ 50.5 µM)
5 | CSCCC1NC(=O)N(CC(=O)Nc2cc(C)on2)C1=O (stereo not given) | > 46.9
6 | CCOc1ccc(CNc2nc3ccccc3n2C)cc1 | > 42.2
7 | O=C(c1cccnc1)c1ncc(C(F)(F)F)cc1Cl | 35.7 (≈ 125 µM)
8 | O=[N+]([O-])C1C(c2ccccc2)=NOC1c1ccccc1O (stereo not given) | > 42.6
9 | Cc1cccc(NC(=O)COC(=O)c2ccc3nc(C)c(C)nc3c2)c1 | 3.6 (≈ 10.3 µM)
10 | CNC(=S)N1CCN(c2nc(-c3ccc(F)cc3)cs2)CC1 | 2.5 (≈ 7.43 µM)
11 | Cc1ccc(O)c(NC(=O)c2ccc3c(c2)C(=O)N(CC(C)C)C3=O)c1 | < 0.4
12 | Cc1cc(C(=O)NCc2ccco2)c2cc(F)ccc2n1 | 42.3 (≈ 149 µM)
13 | Nc1c([N+](=O)[O-])cc(-c2cnc[nH]2)cc1[N+](=O)[O-] | < 0.1
14 | CN(C)CCCNc1nc(N)c([N+](=O)[O-])c(NC2CCCCC2)n1 | > 50.6
15 | COc1ccc2c(c1)C(C)CC(C)(C)N2C(=O)Nc1ccccc1 (stereo not given) | 13.4 (≈ 41.3 µM)
16 | Cc1ccc(N2CCN(C(=O)c3cccs3)CC2)cc1C | 43.8 (≈ 146 µM)
17 | CCn1c(SCc2nc3ccccc3c(=O)[nH]2)nc2ccccc21 | 1.1 (≈ 3.27 µM)
18 | N#C/C(=C\C=C\c1ccccc1[N+](=O)[O-])C(=O)NCc1ccccc1 | 3.7 (≈ 11.1 µM)
19 | CC(NC(=O)CNC(=O)C1CCCCC1)c1cccc(Cl)c1 (stereo not given) | 42.6 (≈ 132 µM)
20 | Cc1cccc(Cl)c1NC(=S)NCCc1ccccn1 | > 45.9

Row | SMILES | solubility kinetic [µg/mL]
21 | CCN(CCO)C(=S)Nc1cc(S(=O)(=O)N(C)C)ccc1C | > 51.8
22 | CC(C)NC(=O)CN1C(=O)c2cccc3cccc1c23 | 9.8 (≈ 36.5 µM)
23 | CC(=O)N1CCc2[nH]c3ccc(C)cc3c2C1 | > 34.2
24 | NC(=O)Cn1cc(C(=O)C(=O)N2CCOCC2)c2ccccc21 | > 47.3
25 | O=C(COC(=O)c1cnccn1)NC(=O)c1ccccc1 | > 42.8
26 | O=C(NC(=S)NCc1ccccc1)c1cccc([N+](=O)[O-])c1 | 2.2 (≈ 6.98 µM)
27 | Cc1ccc(NC(=O)C2CCCN2C(=O)NC2CCCCC2)cc1F (stereo not given) | 0.9 (≈ 2.59 µM)
28 | O=C(Cn1cccc(C(F)(F)F)c1=O)c1ccc(Cl)cc1 | > 47.4
29 | O=C(CNC(=O)c1ccc(-c2ccccc2)cc1)Nc1cccc(CO)c1 | 9.3 (≈ 25.8 µM)
30 | CC(=O)c1ccc(OCCOc2ccc(C#N)cc2)cc1 | 6.8 (≈ 24.2 µM)
31 | CC1CCC2(CC1)SCC(=O)N2c1ccc(F)cc1 (stereo not given) | 39.5 (≈ 141 µM)
32 | CC(NC(=O)CCNC(=O)c1ccco1)c1ccccc1 (stereo not given) | > 42.9
33 | CC1(C)CC2CC(C)(CN2/C=C2/CCCCC2=O)C1 (stereo not given) | 22.6 (≈ 86.5 µM)
34 | COc1cc2[nH]c(C(=O)N(C)Cc3ccccc3)cc2c(OC)c1OC | 35.7 (≈ 101 µM)
35 | Cc1ccc2[nH]c(=O)c(CN(C(=O)c3cccc([N+](=O)[O-])c3)C(C)(C)C)cc2c1 | 2.9 (≈ 7.37 µM)
36 | CN1C(=O)N(C)C(=O)C2(Cc3ccccc3N3CCCC32)C1=O (stereo not given) | 46 (≈ 147 µM)
37 | Cc1ccnc(NC(=O)Cc2c(F)cccc2Cl)c1 | > 41.8
38 | CCOC(=O)c1sc(-c2cccs2)nc1C | 2.6 (≈ 10.3 µM)
39 | O=C1CSC(c2ccccc2F)N1c1ccccc1F (stereo not given) | 3.2 (≈ 11 µM)
40 | CC1CCN(C(=O)c2ccc(S(=O)(=O)N3CCCCCC3)cc2)CC1 | 26 (≈ 71.3 µM)

Row | SMILES | solubility kinetic [µg/mL]
41 | COc1ccc(OCC(=O)OCC(=O)NC2CC2)cc1 | > 41.9
42 | Cc1cccc(NS(=O)(=O)Cc2ccccc2)c1C | 35.6 (≈ 129 µM)
43 | O=c1ccccn1CCOc1ccc(Cl)cc1 | > 37.5
44 | COc1ccc(OC)c2c(C)cc(N3CCCCCC3)nc12 | 6.3 (≈ 21 µM)
45 | Nc1ccccc1C(=O)NC1CCCNC1=O (stereo not given) | > 35
46 | O=C1CSC(c2cccc([N+](=O)[O-])c2)N1CCc1ccccc1 (stereo not given) | 25.8 (≈ 78.6 µM)
47 | Cc1[nH]c2ccc(F)cc2c1CCN1C(=O)OC(C)(C)C1(C)O (stereo not given) | > 48.1
48 | Cc1cccc(NC(=O)c2cccnc2Oc2ccccc2)c1C(=O)O | > 52.3
49 | COC(=O)/C=C1\N/C(=N\c2nc(C)cc(C)n2)N(c2ccccc2)C1=O | > 52.7
50 | COc1ccc(OC)c(-c2nc3ccccc3nc2-c2ccccc2)c1 | 0.6 (≈ 1.75 µM)
51 | CC1CCN(C2=NC(=O)/C(=C/c3ccccc3F)S2)CC1 | 14.3 (≈ 47 µM)
52 | CC(=O)Nc1ccccc1C(=O)OCC(=O)Nc1ncccn1 | > 47.1
53 | S=C(NCCNC(=S)Nc1ccccc1)Nc1ccccc1 | 9.4 (≈ 28.4 µM)
54 | CC1=CC(C)(C)N=C(Nc2nc(C)c3cc(C)cc(C)c3n2)N1 | > 46.4
55 | O=C(NCc1ccccc1)c1ccccc1Br | 36.4 (≈ 125 µM)
56 | O=C(COC(=O)c1ccc(O)cc1)NC(c1ccccc1)c1ccccc1 | 1.7 (≈ 4.7 µM)
57 | CC(C)(C)OC(=O)C(C)(C)Sc1nnc(N)s1 | > 41.3
58 | N#Cc1ccc(Oc2cnccn2)cc1 | > 29.6
59 | Cn1nccc1NC(=O)Nc1ccc(OC(F)(F)F)cc1 | > 45
60 | Cc1cc(C)nc(SCC(=O)N2CCc3ccccc32)n1 | 3.4 (≈ 11.4 µM)
